In PMC5554220, “A Novel Aldosterone Antagonist Limits Renal Injury in 5/6 Nephrectomy” (Scientific Reports, 2017):

Tests used:
[1] = target: T1, human progesterone receptor (hPR) (Homo sapiens, UniProt P06401); test: Radioligand binding, [3H]progesterone, hPR expressed in Sf9
T1 sequence (P06401 679-933 limits assumed): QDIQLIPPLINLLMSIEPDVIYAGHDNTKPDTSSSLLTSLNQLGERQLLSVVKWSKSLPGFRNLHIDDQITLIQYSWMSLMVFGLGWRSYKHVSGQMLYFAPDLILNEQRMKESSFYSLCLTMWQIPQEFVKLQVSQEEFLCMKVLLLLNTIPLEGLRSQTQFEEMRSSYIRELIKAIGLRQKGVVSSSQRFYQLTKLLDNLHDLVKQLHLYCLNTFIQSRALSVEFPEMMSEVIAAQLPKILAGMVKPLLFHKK
Description: Full-length human mineralocorticoid receptor (hMR) to be used in radioligand binding was isolated from a human kidney cDNA library (Clontech, Palo Alto, CA). […] The hMR, hPR, and hAR cDNAs were subcloned in the eukaryotic expression vector pcDNA3. Methods for the expression of functionally active hMR, hAR and hPR utilizing the baculovirus expression system were described previously, [31].
Affinity of ligands to the soluble receptor was determined using vacuum filtration methods, preparing soluble receptors in 96-well Falcon polystyrene plates (BD Biosciences, Bedford, MA) in a total volume of 250 μl. […] Binding studies for ligands for hPR and hAR were determined using [1,2,6,7-3H(N)] […] Specific binding of 3H-progesterone for hPR and 3H-mibolerone for hAR was determined in the presence and absence of 1 μM mifepristone. Inhibition constants (Ki), were determined either from the Cheng-Prusoff equation[32], or directly using non-linear regression curve fitting to a three-parameter one-site competitive equation. […] Protein was measured using colorimetric detection and quantification of bicinchoninic acid (BCA Protein Assay, Pierce, Rockford, IL). […] Concentration response curves were analyzed statistically using a four-parameter logistic equation (Hill equation for sigmoid curves). […]

[2] = target: T2, human glucocorticoid receptor (hGR) (Homo sapiens, UniProt P04150); test: Radioligand binding, hGR expressed in HEK293 cells
T2 construct: expressed in transfected cells; host or cells: HEK293 cells
T2 sequence (P04150 1-777): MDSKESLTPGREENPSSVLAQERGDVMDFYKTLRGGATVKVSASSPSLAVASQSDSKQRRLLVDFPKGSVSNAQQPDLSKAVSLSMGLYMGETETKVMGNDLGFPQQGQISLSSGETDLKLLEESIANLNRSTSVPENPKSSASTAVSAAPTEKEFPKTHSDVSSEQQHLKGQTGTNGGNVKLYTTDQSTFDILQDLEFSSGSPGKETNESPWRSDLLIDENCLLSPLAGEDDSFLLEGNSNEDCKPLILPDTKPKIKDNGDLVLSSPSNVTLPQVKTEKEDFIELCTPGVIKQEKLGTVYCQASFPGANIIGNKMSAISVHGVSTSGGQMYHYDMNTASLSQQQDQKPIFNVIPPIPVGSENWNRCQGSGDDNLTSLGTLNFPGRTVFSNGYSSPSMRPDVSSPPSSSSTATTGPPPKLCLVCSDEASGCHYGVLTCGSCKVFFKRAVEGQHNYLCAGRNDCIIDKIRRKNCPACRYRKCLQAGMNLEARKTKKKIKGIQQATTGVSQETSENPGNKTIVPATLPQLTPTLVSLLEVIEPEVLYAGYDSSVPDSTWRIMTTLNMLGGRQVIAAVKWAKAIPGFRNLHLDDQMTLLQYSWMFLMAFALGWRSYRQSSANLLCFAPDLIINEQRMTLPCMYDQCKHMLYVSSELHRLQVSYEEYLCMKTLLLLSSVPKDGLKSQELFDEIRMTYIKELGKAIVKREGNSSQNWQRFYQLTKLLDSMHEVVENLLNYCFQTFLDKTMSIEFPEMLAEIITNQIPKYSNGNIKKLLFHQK
Description: Affinity of ligands to the soluble receptor was determined using vacuum filtration methods, preparing soluble receptors in 96-well Falcon polystyrene plates (BD Biosciences, Bedford, MA) in a total volume of 250 μl. The hMR Sf9 lysate (approximately 20–25 μg protein in 20 μl) was incubated in the absence or presence of competing ligands with 10 μl of [1,2,6,7-3H] […] Binding studies for ligands for hPR and hAR were determined using [1,2,6,7-3H(N)] Progesterone (specific activity 103 Ci/mmol, at a final concentration 0.5 nM; NET381, NEN/Perkin Elmer Life Sciences, Boston, MA) and [17α-methyl-3H] Mibolerone, an enzymaticaly stable analog of testosterone (specific activity 76.8 Ci/mmol, final concentration 0.3 nM; NET919, NEN), respectively. Specific binding of 3H-progesterone for hPR and 3H-mibolerone for hAR was determined in the presence and absence of 1 μM mifepristone. Inhibition constants (Ki), were determined either from the Cheng-Prusoff equation[32], or directly using non-linear regression curve fitting to a three-parameter one-site competitive equation. Ki values obtained from individual concentration response curves were reported as the mean ± SEM. Protein was measured using colorimetric detection and quantification of bicinchoninic acid (BCA Protein Assay, Pierce, Rockford, IL). Cos-7L cells were cotransfected with expression vectors and a reporter plasmid responsive to all 3 nuclear hormone receptors. pBluescript II SK (+) (Stratagene, San Diego, CA) was included as a source of carrier DNA. The number of repetitions of full concentration response curves (n) represents values from at least two independent experiments for each condition. Concentration response curves were analyzed statistically using a four-parameter logistic equation (Hill equation for sigmoid curves). Similar methodology was adopted for the human glucocorticoid receptor (hGR) expressed in HEK293 cells.

With `O=c1[nH]c2ccc(/C=C3\c4ccc(F)cc4COc4cc(F)ccc43)cc2[nH]1` [Ly] the Ki ([1]; hPR expressed in Sf9, [3H]progesterone 0.5 nM, read-out: Mean Ki ± SEM hPR) was 92 ± 19 nM, the “Ratio of Ki's hPR: hMR” value ([1]; selectivity) was 58 and the Ki ([2]; hGR expressed in HEK293 cells, read-out: Mean Ki ± SEM hGR*) was 112 ± 18 nM. For the same compound, the “Ratio of Ki's hGR*: hMR” value ([2]; selectivity) was 70.
